Where two headings read alike, the source gives them in different places. Square brackets hold non-standard residues; d marks the D form. Peptide text beside a SMILES is read from it. * marks the point of attachment. Dolaproine = CO[C@@H]([C@@H]1CCCN1)[C@@H](C)C(=O)O; Dil = CC[C@H](C)[C@H](NC)[C@@H](CC(=O)O)OC; NMe2Val = CC(C)[C@@H](C(=O)*)N(C)C; X1 = C[C@H](N)C(=O)OCCCN*
Key:
Format in all cases: cell-based
[1] = tested on: HER2 expressing cells BT474; assay: Cell viability assay (Cell Titer-Glo), BT474; details: read-out: BT474 IC50
Procedure: (§1) PBRM-drug polymer conjugates were evaluated for their tumor viability using Cell Titer-Glo (Promega Corp). Cells were plated in black walled 96-well plate and allowed to adhere overnight at 37° C. in a humidified atmosphere of 5% CO2. HER2 expressing cells SKBR3, BT474, NCI-N87 and cells expressing low levels of HER2-MCF7 were plated at a density of 5,000 cells per well. The next day the medium was replaced with 50 μL fresh medium and 50 μL of 2× stocks of PBRM-drug polymer conjugate, drug polymer conjugate or drug were added to appropriate wells, mixed and incubated for 72 h. Cell Titer-Glo reagent was added to the wells at room temperature and the luminescent signal was measured after 10 min using a SpectraMax M5 plate reader (Molecular Devices). Dose response curves were generated using SoftMax Pro software. IC50 values were determined from four-parameter curve fitting.

[2] = tested on: HER2 expressing cells NCI-N87; assay: Cell viability assay (Cell Titer-Glo), NCI-N87; details: read-out: N87 IC50
Procedure: as §1

[3] = tested on: cells expressing low levels of HER2-MCF7; assay: Cell viability assay (Cell Titer-Glo), MCF7
Procedure: as §1

[4] = tested on: HER2 expressing cells SKBR3; assay: Cell viability assay (Cell Titer-Glo), SKBR3
Procedure: as §1

[5] = Table XIII, 72 h, conjugates with high drug loading
[6] = Table XIII, 72 h, conjugates with high drug loading, read-out: MCF7 IC50
[7] = Table XIII, 72 h, conjugates with high drug loading, read-out: SKBR3 IC50
[8] = Table XII, 72 h, conjugates with PBRM MW<80 kDa, read-out: SKBR3 IC50
[9] = Table XII, 72 h, conjugates with PBRM MW<80 kDa, read-out: MCF7 IC50
[10] = Homo sapiens, MCF7, 72 h, read-out: MCF7 IC50, Table II

Compound | IC50 [1, 5] | IC50 [2, 5] | IC50 [3, 6] | IC50 [4, 7] | IC50 ([1]; Homo sapiens, BT-474, 72 h) | also measured
22 kDa PHF-BA-(AF HPA)-SS-Rituximab [Example 94, Conjugate C] | 2.82 nM | 5.84 nM | 4.17 nM | – | – | –
22 kDa PHF-BA-(AF HPA-L-Alanine)-SS-Trastuzumab [Example 94, Conjugate A] | 0.05 nM | 0.12 nM | 9.5 nM | 0.008 nM | – | –
47 kDa PHF-BA-(AF HPA-L-Alanine)-SS-Rituximab [Example 94, Conjugate D] | 1.1 nM | 10.9 nM | 8.8 nM | 0.26 nM | – | –
47 kDa PHF-BA-(AF HPA-L-Alanine)-SS-Trastuzumab [Example 94, Conjugate B] | < 0.05 nM | ~0.3 nM | 7.4 nM | < 0.05 nM | – | –
105 kDa PHF-BA (AF HPA-L-Alanine)-SS-(Trastuzumab-Fab′) [Example 96 Conjugate A] | – | – | – | – | – | IC50 [4, 8]: 0.6 nM; IC50 [3, 9]: > 100 nM
156 kDa PHF-BA (AF HPA-L-Alanine)-SS-(Trastuzumab-Fab′) [Example 96 Conjugate B] | – | – | – | – | – | IC50 [4, 8]: 1 nM; IC50 [3, 9]: > 100 nM
CCC1(O)C[C@H]2C[N@](CCc3c([nH]c4ccccc34)[C@@](C(=O)OC)(c3cc4c(cc3OC)N(C)C3C45CCN4CC=C[C@](CC)(C45)[C@@H](O)[C@]3(O)C(=O)NC[C@H](C)O)C2)C1 (stereo partly drawn) [Example 22, (S)-2HPV] | – | – | – | – | 0.41 nM | IC50 [3, 10]: 1.83 nM
CCC1(O)C[C@H]2C[N@](CCc3c([nH]c4ccccc34)[C@@](C(=O)OC)(c3cc4c(cc3OC)N(C)C3C45CCN4CC=C[C@](CC)(C45)[C@@H](O)[C@]3(O)C(=O)NC[C@@H](C)O)C2)C1 (stereo partly drawn) [Example 23, (R)-2HPV] | – | – | – | – | 0.39 nM | IC50 ([4]; Homo sapiens, SK-BR-3, 72 h, read-out: SKBR3 IC50, Table II): 0.71 nM; IC50 [3, 10]: 1.71 nM
CC[C@H](C)[C@@H]([C@@H](CC(=O)N1CCC[C@H]1[C@H](OC)[C@@H](C)C(=O)N[C@@H](Cc1ccccc1)C(=O)NCCCOC(=O)[C@H](C)N)OC)N(C)C(=O)[C@@H](NC(=O)[C@H](C(C)C)N(C)C)C(C)C [Example 50, AF HPA-L-Alanine] (NMe2Val-V[Dil][Dolaproine]F-X1) | – | – | – | – | 0.85 nM | IC50 ([4]; Homo sapiens, SK-BR-3, 72 h, read-out: SKBR3 IC50, Table XIII, conjugates with high drug loading): 0.32 nM; IC50 ([2]; Homo sapiens, NCI-N87, 72 h): 1.6 nM; IC50 ([3]; Homo sapiens, MCF7, 72 h, read-out: MCF7 IC50, Table XIII, conjugates with high drug loading): 8.5 nM; IC50 ([3]; read-out: MCF7 IC50, Table XIII, 72 h, conjugates with high drug loading): 8.2 nM

Reference: patent US8821850B2, “Protein-polymer-drug conjugates” (Mersana Therapeutics, Inc., priority 2011, dated 2014)
